{"source": "patent US20080207614A1", "about": "“QUINAZOLINE DERIVATIVES FOR THE TREATMENT AND PREVENTION OF DIABETES AND OBESITY” (SK CHEMICALS CO., LTD., priority 2004, published 2008)", "system": "AMPK", "test": "Measurement of AMPK activity by Western blot in C2C12 cells", "type": "cell-based", "parameters": "key to AMPK activity (degree of phosphorylation of serine-79 and threonine-172): fold increase in threonine-172 phosphorylation", "conditions": "10 μM for 50 minutes, no superscript: Western blot of serine-79 and threonine-172 phosphorylation", "description": "C2C12 cells were cultured and differentiated in the same manner as in Experimental Example 1. Treatment with the test materials was also performed in the same manner as in Experimental Example 1 (10 μM for 50 minutes). The culture medium was removed and the cells were washed for 2 times with PBS and protein extracts were obtained using a lysis buffer (50 mM tris-HCl, pH 7.4, 1% NP-40, 0.25% sodium deoxycholate, 150 mM NaCl, 1 mM EDTA, 1 mM PMSF, 1 mM sodium o-vanadate, 1 mM NaF, 1 μg/mL apronitin, 1 μg/mL leu-peptin, 1 μg/mL pepstatin). The AMPK activity was determined from Western blot analysis of the degree of phosphorylation of serine-79 […] acetyl CoA carboxylase and the degree of phosphorylation of threonine-172. The amount of ERK (extracellular signal regulated protein kinase) was confirmed by Western blot in order to quantify the proteins.\nThe result of Western blot analysis is given in Table 3 below, wherein “strong” means that the degree of phosphorylation of threonine-172 increased by 3 times or more, “mild” means that the degree of phosphorylation of threonine-172 increased by 1 to 3 times and “weak” means that the degree of phosphorylation of threonine-172 increased by less than 1 time."}
{"smiles": "COc1ccccc1CNc1nc(N2CCN(C)CC2)nc2ccccc12", "note": "[Compound 278, (2-Methoxybenzyl)-[2-(4-methylpiperazino-1-yl)-quinazolino-4-yl]-amine]", "values": [{"measurement": "AMPK activity (degree of phosphorylation of serine-79 and threonine-172)", "result": 1.2}]}
{"smiles": "CCCc1nc(NCc2ccccc2OC)c2ccccc2n1", "note": "[Compound 393, (2-Methoxybenzyl)-(2-propylquinazolino-4-yl)-amine]", "values": [{"measurement": "AMPK activity (degree of phosphorylation of serine-79 and threonine-172)", "result": 1.0}]}
{"smiles": "CC(C)c1nc(SCc2ccccc2)c2ccccc2n1", "note": "[Compound 416, 4-Benzylsulfanyl-2-isopropylquinazoline]", "values": [{"measurement": "AMPK activity (degree of phosphorylation of serine-79 and threonine-172)", "result": 0.7}]}
{"smiles": "COc1cccc(CNc2nc(N3CCOCC3)nc3ccccc23)c1OC", "note": "[Compound 289, (2,3-Dimethoxybenzyl)-(2-morpholino-4-ylquinazolino-4-yl)-amine]", "values": [{"measurement": "AMPK activity (degree of phosphorylation of serine-79 and threonine-172)", "result": 1.5}]}
{"smiles": "COc1ccc(CNc2nc(N3CCCCC3)nc3ccccc23)cc1", "note": "[Compound 284, (4-Methoxybenzyl)-(2-piperidino-1-ylquinazolino-4-yl)-amine]", "values": [{"measurement": "AMPK activity (degree of phosphorylation of serine-79 and threonine-172)", "result": 1.4}]}
{"smiles": "c1csc(-c2nc(NCc3ccc4c(c3)OCO4)c3ccccc3n2)c1", "note": "[Compound 352, Benzo[1,3]dioxol-5-ylmethyl-(2-thiopenyl-2-ylquinazolino-4-yl)-amine]", "values": [{"measurement": "AMPK activity (degree of phosphorylation of serine-79 and threonine-172)", "result": 0.5}]}
{"smiles": "COc1ccccc1CNc1nc(-c2cccs2)nc2ccccc12", "note": "[Compound 349, (2-Methoxybenzyl)-(2-thiopenyl-2-ylquinazolino-4-yl)-amine]", "values": [{"measurement": "AMPK activity (degree of phosphorylation of serine-79 and threonine-172)", "result": 2.1}]}
{"smiles": "COc1ccccc1CNc1nc(N2CCOCC2)nc2ccccc12", "note": "[Compound 277, (2-Methoxybenzyl)-(2-morpholino-4-ylquinazolino-4-yl)-amine]", "values": [{"measurement": "AMPK activity (degree of phosphorylation of serine-79 and threonine-172)", "result": 1.3}]}
{"smiles": "COc1cc(OC)c(CNc2nc(N3CCCC3)nc3ccccc23)c(OC)c1", "note": "[Compound 315, (2-Pyrrolidino-1-ylquinazolino-4-yl)-(2,4,6-trimethoxybenzyl)-amine]", "values": [{"measurement": "AMPK activity (degree of phosphorylation of serine-79 and threonine-172)", "result": 0.4}]}
{"smiles": "COc1cccc(CNc2nc(N3CCCCC3)nc3ccccc23)c1", "note": "[Compound 280, (3-Methoxybenzyl)-(2-piperidino-1-ylquinazolino-4-yl)-amine]", "values": [{"measurement": "AMPK activity (degree of phosphorylation of serine-79 and threonine-172)", "result": 1.2}]}
{"smiles": "COc1cccc(CNc2nc(C3CC3)nc3ccccc23)c1OC", "note": "[Compound 386, (2-Cyclopropylquinazolino-4-yl)-(2,3-dimethoxybenzyl)-amine]", "values": [{"measurement": "AMPK activity (degree of phosphorylation of serine-79 and threonine-172)", "result": 1.3}]}
{"smiles": "COc1cc(OC)c(CNc2nc(-c3cccs3)nc3ccccc23)c(OC)c1", "note": "[Compound 359, (2-Thiopenyl-2-ylquinazolino-4-yl)-(2,4,6-trimethoxybenzyl)-amine]", "values": [{"measurement": "AMPK activity (degree of phosphorylation of serine-79 and threonine-172)", "result": 0.9}]}
{"smiles": "COc1cc(OC)c(CNc2nc(N3CCN(C)CC3)nc3ccccc23)c(OC)c1", "note": "[Compound 318, [2-(4-Methylpiperazino-1-yl)-quinazolino-4-yl]-(2,4,6-trimethoxybenzyl)-amine]", "values": [{"measurement": "AMPK activity (degree of phosphorylation of serine-79 and threonine-172)", "result": 0.5}]}
{"smiles": "COc1ccc(OC)c(CNc2nc(N3CCOCC3)nc3ccccc23)c1", "note": "[Compound 297, (2,5-Dimethoxybenzyl)-(2-morpholino-4-ylquinazolino-4-yl)-amine]", "values": [{"measurement": "AMPK activity (degree of phosphorylation of serine-79 and threonine-172)", "result": 0.8}]}
{"smiles": "CCCc1nc(NCc2c(OC)cc(OC)cc2OC)c2ccccc2n1", "note": "[Compound 403, (2-Propylquinazolino-4-yl)-(2,4,6-trimethoxybenzyl)-amine]", "values": [{"measurement": "AMPK activity (degree of phosphorylation of serine-79 and threonine-172)", "result": 1.3}]}
{"smiles": "COc1cc(OC)c(CNc2nc(N3CCOCC3)nc3ccccc23)c(OC)c1", "note": "[Compound 317, (2-Morpholino-4-ylquinazolino-4-yl)-(2,4,6-trimethoxybenzyl)-amine]", "values": [{"measurement": "AMPK activity (degree of phosphorylation of serine-79 and threonine-172)", "result": 0.3}]}
{"smiles": "COc1cccc(CNc2nc(N3CCOCC3)nc3ccccc23)c1", "note": "[Compound 281, (3-Methoxybenzyl)-(2-morpholino-4-ylquinazolino-4-yl)-amine]", "values": [{"measurement": "AMPK activity (degree of phosphorylation of serine-79 and threonine-172)", "result": 0.9}]}
{"smiles": "COc1cccc(CNc2nc(-c3cccs3)nc3ccccc23)c1", "note": "[Compound 350, (3-Methoxybenzyl)-(2-thiopenyl-2-ylquinazolino-4-yl)-amine]", "values": [{"measurement": "AMPK activity (degree of phosphorylation of serine-79 and threonine-172)", "result": 0.6}]}
{"smiles": "COc1cc(CNc2nc(-c3cccs3)nc3ccccc23)cc(OC)c1", "note": "[Compound 354, (3,5-Dimethoxybenzyl)-(2-thiopenyl-2-ylquinazolino-4-yl)-amine]", "values": [{"measurement": "AMPK activity (degree of phosphorylation of serine-79 and threonine-172)", "result": 0.6}]}
{"smiles": "COc1ccc(OC)c(CNc2nc(-c3ccco3)nc3ccccc23)c1", "note": "[Compound 347, (2,5-Dimethoxybenzyl)-(2-furano-2-ylquinazolino-4-yl)-amine]", "values": [{"measurement": "AMPK activity (degree of phosphorylation of serine-79 and threonine-172)", "result": 1.2}]}
{"smiles": "COc1cc(CNc2nc(N3CCCC3)nc3ccccc23)cc(OC)c1OC", "note": "[Compound 311, (2-Pyrrolidino-1-ylquinazolino-4-yl)-(3,4,5-trimethoxybenzyl)-amine]", "values": [{"measurement": "AMPK activity (degree of phosphorylation of serine-79 and threonine-172)", "result": 0.2}]}
{"smiles": "COc1cc(OC)c(CNc2nc(-c3ccco3)nc3ccccc23)c(OC)c1", "note": "[Compound 348, (2-Furano-2-ylquinazolino-4-yl)-(2,4,6-trimethoxybenzyl)-amine]", "values": [{"measurement": "AMPK activity (degree of phosphorylation of serine-79 and threonine-172)", "result": 1.6}]}
{"smiles": "COc1ccc(OC)c(CNc2nc(-c3cccs3)nc3ccccc23)c1", "note": "[Compound 358, (2,5-Dimethoxybenzyl)-(2-thiopenyl-2-ylquinazolino-4-yl)-amine]", "values": [{"measurement": "AMPK activity (degree of phosphorylation of serine-79 and threonine-172)", "result": 0.8}]}
{"smiles": "COc1ccc(CNc2nc(-c3ccco3)nc3ccccc23)cc1OC", "note": "[Compound 344, (3,4-Dimethoxybenzyl)-(2-furano-2-ylquinazolino-4-yl)-amine]", "values": [{"measurement": "AMPK activity (degree of phosphorylation of serine-79 and threonine-172)", "result": 0.4}]}
{"smiles": "COc1cccc(CNc2nc(N3CCCC3)nc3ccccc23)c1OC", "note": "[Compound 287, (2,3-Dimethoxybenzyl)-(2-pyrrolidino-1-ylquinazolino-4-yl)-amine]", "values": [{"measurement": "AMPK activity (degree of phosphorylation of serine-79 and threonine-172)", "result": 1.2}]}
{"smiles": "COc1ccc(CNc2ncnc3ccccc23)cc1OC", "note": "[Compound 410, (3,4-Dimethoxybenzyl)-quinazolino-4-ylamine]", "values": [{"measurement": "AMPK activity (degree of phosphorylation of serine-79 and threonine-172)", "result": 1.1}]}
{"smiles": "COc1ccc(CNc2nc(-c3cccs3)nc3ccccc23)c(OC)c1", "note": "[Compound 357, (2,4-Dimethoxybenzyl)-(2-thiopenyl-2-ylquinazolino-4-yl)-amine]", "values": [{"measurement": "AMPK activity (degree of phosphorylation of serine-79 and threonine-172)", "result": 0.7}]}
{"smiles": "COc1cc(CNc2nc(-c3cccs3)nc3ccccc23)cc(OC)c1OC", "note": "[Compound 356, (2-Thiopenyl-2-ylquinazolino-4-yl)-(3,4,5-trimethoxybenzyl)-amine]", "values": [{"measurement": "AMPK activity (degree of phosphorylation of serine-79 and threonine-172)", "result": 1.4}]}
{"smiles": "COc1cc(CNc2nc(C(OC)c3ccccc3)nc3ccccc23)cc(OC)c1", "note": "(centres unmarked) [Compound 365, (3,5-Dimethoxybenzyl)-[2-(methoxyphenylmethyl)-quinazolino-4-yl]-amine]", "values": [{"measurement": "AMPK activity (degree of phosphorylation of serine-79 and threonine-172)", "result": 1.1}]}
{"smiles": "CCCc1nc(NCc2ccc(OC)cc2OC)c2ccccc2n1", "note": "[Compound 401, (2,4-Dimethoxybenzyl)-(2-propylquinazolino-4-yl)-amine]", "values": [{"measurement": "AMPK activity (degree of phosphorylation of serine-79 and threonine-172)", "result": 1.4}]}
{"smiles": "CCCc1nc(NCc2cc(OC)c(OC)c(OC)c2)c2ccccc2n1", "note": "[Compound 400, (2-Propylquinazolino-4-yl)-(3,4,5-trimethoxybenzyl)-amine]", "values": [{"measurement": "AMPK activity (degree of phosphorylation of serine-79 and threonine-172)", "result": 0.4}]}
{"smiles": "CCOc1nc(NCc2ccc3c(c2)OCO3)c2ccccc2n1", "note": "[Compound 320, Benzo[1,3]dioxol-5-ylmethyl-(2-ethoxyquinazolino-4-yl)-amine]", "values": [{"measurement": "AMPK activity (degree of phosphorylation of serine-79 and threonine-172)", "result": 0.9}]}
